{"source": "paper PMC10892984", "about": "“Novel Antineoplastic Inducers of Mitochondrial Apoptosis in Human Cancer Cells” (Molecules, 2024)", "system": "p21^Waf1/p21^Cip1, cyclin D1, Bax", "assay": "Expression of p53-regulated protein factors in cancer cells (data not shown)", "type": "cell-based", "conditions": "mCRPC cells, multiple myeloma U266 cells, plasmacytoma RPMI-8226 cells", "data": [{"smiles": "c1cc(CNC23CC4CC(CC(C4)C2)C3)cc(C[N+](Cc2cccc(CNC34CC5CC(CC(C5)C3)C4)c2)(Cc2cccc(CNC34CC5CC(CC(C5)C3)C4)c2)Cc2cccc(CNC34CC5CC(CC(C5)C3)C4)c2)c1", "note": "(stereo not drawn) [Compound 1, tetrakis{3-[(tricyclo[3.3.1.1^3,7]decan-1-ammonio)methyl]benzyl}ammonium pentachloride]", "values": [{"measurement": "cyclin D1 protein factor", "value": "downregulated"}, {"measurement": "expression of cyclin-dependent kinase inhibitor p21^Waf1/p21^Cip1", "value": "induced the expression"}, {"measurement": "pro-apoptotic factor Bax expression", "value": "increased"}]}]}
